{"source": "the supplement of paper PMC8741786", "system": "Neisseria subflava/flavescens/perflava", "test": "minimum inhibitory concentration (ETEST)", "details": "population: general population, antibiotic use in previous 6 months: No", "protocol": "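Oropharyngeal Neisseria isolates from MSM and employees in Belgium were identified to species by MALDI-TOF MS. MICs of azithromycin, ceftriaxone and ciprofloxacin were determined by ETEST on GC agar after 24 h at 36.5 °C and 5-7% CO2, in mg/L. Values beyond the strip range are reported as >256 (azithromycin) or <0.016 (ceftriaxone); isolates that did not grow are NA.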"}
{"compound": "CC[C@H]1OC(=O)[C@H](C)[C@@H](O[C@H]2C[C@@](C)(OC)[C@@H](O)[C@H](C)O2)[C@H](C)[C@@H](O[C@@H]2O[C@H](C)C[C@H](N(C)C)[C@H]2O)[C@](C)(O)C[C@@H](C)CN(C)[C@H](C)[C@@H](O)[C@]1(C)O", "note": "[azithromycin]", "values": [{"measurement": "minimum inhibitory concentration", "setting": "isolate id (sample isolate): Co000761_5", "result": 6, "unit": "µg/mL"}, {"measurement": "minimum inhibitory concentration", "setting": "isolate id (sample isolate): Co000761_6", "result": 3, "unit": "µg/mL"}, {"measurement": "minimum inhibitory concentration", "setting": "isolate id (sample isolate): Co000762_3", "result": 6, "unit": "µg/mL"}, {"measurement": "minimum inhibitory concentration", "setting": "isolate id (sample isolate): Co000762_4", "result": 4, "unit": "µg/mL"}, {"measurement": "minimum inhibitory concentration", "setting": "isolate id (sample isolate): Co000763_2", "result": 2, "unit": "µg/mL"}, {"measurement": "minimum inhibitory concentration", "setting": "isolate id (sample isolate): Co000764_1", "result": 8, "unit": "µg/mL"}, {"measurement": "minimum inhibitory concentration", "setting": "isolate id (sample isolate): Co000764_2", "result": 8, "unit": "µg/mL"}, {"measurement": "minimum inhibitory concentration", "setting": "isolate id (sample isolate): Co000765_2", "result": 3, "unit": "µg/mL"}, {"measurement": "minimum inhibitory concentration", "setting": "isolate id (sample isolate): Co000765_3", "result": 3, "unit": "µg/mL"}, {"measurement": "minimum inhibitory concentration", "setting": "isolate id (sample isolate): Co000765_4", "result": 3, "unit": "µg/mL"}, {"measurement": "minimum inhibitory concentration", "setting": "isolate id (sample isolate): Co000766_1", "result": 6, "unit": "µg/mL"}, {"measurement": "minimum inhibitory concentration", "setting": "isolate id (sample isolate): Co000766_3", "result": 1, "unit": "µg/mL"}, {"measurement": "minimum inhibitory concentration", "setting": "isolate id (sample isolate): Co000767_1", "result": 1, "unit": "µg/mL"}, {"measurement": "minimum inhibitory concentration", "setting": "isolate id (sample isolate): Co000767_2", "result": 6, "unit": "µg/mL"}, {"measurement": "minimum inhibitory concentration", "setting": "isolate id (sample isolate): Co000767_4", "result": 1.5, "unit": "µg/mL"}, {"measurement": "minimum inhibitory concentration", "setting": "isolate id (sample isolate): Co000767_5", "result": 1.5, "unit": "µg/mL"}, {"measurement": "minimum inhibitory concentration", "setting": "isolate id (sample isolate): Co000767_6", "result": 0.75, "unit": "µg/mL"}, {"measurement": "minimum inhibitory concentration", "setting": "isolate id (sample isolate): Co000767_7", "result": 1.5, "unit": "µg/mL"}, {"measurement": "minimum inhibitory concentration", "setting": "isolate id (sample isolate): Co000768_1", "result": 2, "unit": "µg/mL"}, {"measurement": "minimum inhibitory concentration", "setting": "isolate id (sample isolate): Co000768_2", "result": 3, "unit": "µg/mL"}, {"measurement": "minimum inhibitory concentration", "setting": "isolate id (sample isolate): Co000769_1", "result": 4, "unit": "µg/mL"}, {"measurement": "minimum inhibitory concentration", "setting": "isolate id (sample isolate): Co000769_2", "result": 2, "unit": "µg/mL"}, {"measurement": "minimum inhibitory concentration", "setting": "isolate id (sample isolate): Co000769_4", "result": 4, "unit": "µg/mL"}, {"measurement": "minimum inhibitory concentration", "setting": "isolate id (sample isolate): Co000770_2", "result": 2, "unit": "µg/mL"}, {"measurement": "minimum inhibitory concentration", "setting": "isolate id (sample isolate): Co000770_4", "result": 4, "unit": "µg/mL"}, {"measurement": "minimum inhibitory concentration", "setting": "isolate id (sample isolate): Co000770_6", "result": 3, "unit": "µg/mL"}, {"measurement": "minimum inhibitory concentration", "setting": "isolate id (sample isolate): Co000771_2", "result": 6, "unit": "µg/mL"}, {"measurement": "minimum inhibitory concentration", "setting": "isolate id (sample isolate): Co000771_3", "result": 6, "unit": "µg/mL"}, {"measurement": "minimum inhibitory concentration", "setting": "isolate id (sample isolate): Co000771_5", "result": 3, "unit": "µg/mL"}, {"measurement": "minimum inhibitory concentration", "setting": "isolate id (sample isolate): Co000772_1", "result": 2, "unit": "µg/mL"}, {"measurement": "minimum inhibitory concentration", "setting": "isolate id (sample isolate): Co000772_2", "result": 3, "unit": "µg/mL"}, {"measurement": "minimum inhibitory concentration", "setting": "isolate id (sample isolate): Co000772_4", "result": 4, "unit": "µg/mL"}, {"measurement": "minimum inhibitory concentration", "setting": "isolate id (sample isolate): Co000772_5", "result": 3, "unit": "µg/mL"}, {"measurement": "minimum inhibitory concentration", "setting": "isolate id (sample isolate): Co000772_6", "result": 4, "unit": "µg/mL"}, {"measurement": "minimum inhibitory concentration", "setting": "isolate id (sample isolate): Co000773_1", "result": 2, "unit": "µg/mL"}, {"measurement": "minimum inhibitory concentration", "setting": "isolate id (sample isolate): Co000773_2", "result": 3, "unit": "µg/mL"}, {"measurement": "minimum inhibitory concentration", "setting": "isolate id (sample isolate): Co000774_2", "result": 3, "unit": "µg/mL"}, {"measurement": "minimum inhibitory concentration", "setting": "isolate id (sample isolate): Co000775_1", "result": 2, "unit": "µg/mL"}, {"measurement": "minimum inhibitory concentration", "setting": "isolate id (sample isolate): Co000775_2", "result": 4, "unit": "µg/mL"}, {"measurement": "minimum inhibitory concentration", "setting": "isolate id (sample isolate): Co000775_3", "result": 0.094, "unit": "µg/mL"}, {"measurement": "minimum inhibitory concentration", "setting": "isolate id (sample isolate): Co000776_2", "result": 32, "unit": "µg/mL"}, {"measurement": "minimum inhibitory concentration", "setting": "isolate id (sample isolate): Co000776_3", "result": 24, "unit": "µg/mL"}, {"measurement": "minimum inhibitory concentration", "setting": "isolate id (sample isolate): Co000777_1", "result": 2, "unit": "µg/mL"}, {"measurement": "minimum inhibitory concentration", "setting": "isolate id (sample isolate): Co000777_2", "result": 0.25, "unit": "µg/mL"}, {"measurement": "minimum inhibitory concentration", "setting": "isolate id (sample isolate): Co000777_4", "result": "> 256", "unit": "µg/mL"}, {"measurement": "minimum inhibitory concentration", "setting": "isolate id (sample isolate): Co000778_1", "result": 3, "unit": "µg/mL"}, {"measurement": "minimum inhibitory concentration", "setting": "isolate id (sample isolate): Co000778_2", "result": 2, "unit": "µg/mL"}, {"measurement": "minimum inhibitory concentration", "setting": "isolate id (sample isolate): Co000778_3", "result": 4, "unit": "µg/mL"}, {"measurement": "minimum inhibitory concentration", "setting": "isolate id (sample isolate): Co000780_4", "result": 2, "unit": "µg/mL"}, {"measurement": "minimum inhibitory concentration", "setting": "isolate id (sample isolate): Co000781_1", "result": 1.5, "unit": "µg/mL"}, {"measurement": "minimum inhibitory concentration", "setting": "isolate id (sample isolate): Co000781_3", "result": 4, "unit": "µg/mL"}, {"measurement": "minimum inhibitory concentration", "setting": "isolate id (sample isolate): Co000781_4", "result": 3, "unit": "µg/mL"}, {"measurement": "minimum inhibitory concentration", "setting": "isolate id (sample isolate): Co000782_2", "result": 8, "unit": "µg/mL"}, {"measurement": "minimum inhibitory concentration", "setting": "isolate id (sample isolate): Co000782_3", "result": 8, "unit": "µg/mL"}, {"measurement": "minimum inhibitory concentration", "setting": "isolate id (sample isolate): Co000782_4", "result": 8, "unit": "µg/mL"}, {"measurement": "minimum inhibitory concentration", "setting": "isolate id (sample isolate): Co000783_1", "result": 4, "unit": "µg/mL"}, {"measurement": "minimum inhibitory concentration", "setting": "isolate id (sample isolate): Co000783_2", "result": 1.5, "unit": "µg/mL"}, {"measurement": "minimum inhibitory concentration", "setting": "isolate id (sample isolate): Co000783_5", "result": 2, "unit": "µg/mL"}, {"measurement": "minimum inhibitory concentration", "setting": "isolate id (sample isolate): Co000784_1", "result": 1.5, "unit": "µg/mL"}, {"measurement": "minimum inhibitory concentration", "setting": "isolate id (sample isolate): Co000784_2", "result": 4, "unit": "µg/mL"}, {"measurement": "minimum inhibitory concentration", "setting": "isolate id (sample isolate): Co000784_5", "result": 4, "unit": "µg/mL"}, {"measurement": "minimum inhibitory concentration", "setting": "isolate id (sample isolate): Co000785_1", "result": 1, "unit": "µg/mL"}, {"measurement": "minimum inhibitory concentration", "setting": "isolate id (sample isolate): Co000785_2", "result": 1.5, "unit": "µg/mL"}, {"measurement": "minimum inhibitory concentration", "setting": "isolate id (sample isolate): Co000785_3", "result": 2, "unit": "µg/mL"}, {"measurement": "minimum inhibitory concentration", "setting": "isolate id (sample isolate): Co000785_4", "result": 1, "unit": "µg/mL"}, {"measurement": "minimum inhibitory concentration", "setting": "isolate id (sample isolate): Co000786_1", "result": 2, "unit": "µg/mL"}, {"measurement": "minimum inhibitory concentration", "setting": "isolate id (sample isolate): Co000786_2", "result": 4, "unit": "µg/mL"}, {"measurement": "minimum inhibitory concentration", "setting": "isolate id (sample isolate): Co000787_1", "result": 2, "unit": "µg/mL"}, {"measurement": "minimum inhibitory concentration", "setting": "isolate id (sample isolate): Co000787_2", "result": 6, "unit": "µg/mL"}, {"measurement": "minimum inhibitory concentration", "setting": "isolate id (sample isolate): Co000787_4", "result": 6, "unit": "µg/mL"}, {"measurement": "minimum inhibitory concentration", "setting": "isolate id (sample isolate): Co000788_2", "result": 3, "unit": "µg/mL"}, {"measurement": "minimum inhibitory concentration", "setting": "isolate id (sample isolate): Co000788_3", "result": 3, "unit": "µg/mL"}, {"measurement": "minimum inhibitory concentration", "setting": "isolate id (sample isolate): Co000788_5", "result": 3, "unit": "µg/mL"}, {"measurement": "minimum inhibitory concentration", "setting": "isolate id (sample isolate): Co000789_1", "result": 6, "unit": "µg/mL"}, {"measurement": "minimum inhibitory concentration", "setting": "isolate id (sample isolate): Co000790_2", "result": 1, "unit": "µg/mL"}, {"measurement": "minimum inhibitory concentration", "setting": "isolate id (sample isolate): Co000790_4", "result": 1.5, "unit": "µg/mL"}]}
